# Measured values taken from US20250034139A1, “AMINE COMPOUNDS HAVING ANTI-INFLAMMATORY, ANTIFUNGAL, ANTIPARASITIC, AND ANTICANCER ACTIVITY” (PHARMA CINQ, LLC, priority 2013, published 2025).
# Legend:
# [1] = system: PC3 human prostate cancer cells; assay: Example S: in vitro anticancer screen, PC-3 cells, Wst1; format: cell-based; details: Homo sapiens, PC-3, approximately 20 hours, Wst1, read-out: PC-3, percent of cancer cell survival relative to vehicle treated cells
# Protocol: Activity against PC3 human prostate cancer cells in vitro was assessed by a similar method. PC-3 prostate cancer cells were plated at 2×10^4 cells/well in 96 well flat bottom tissue culture plates, and incubated for approximately 20 hours with vehicle or test compounds at concentrations of 0.4, 0.5 or 2.5 μM as indicated for specific compounds in the right-hand column of Table 37. A 1/10th volume of Wst1 dye was added/well and incubated for two hours in the cell culture incubator. Samples were analyzed in triplicate on an EL800 Universal Microplate Reader at 450 nm, reference wavelength 630 nm.
# (§1) Numerical values in the Table 37 represent percent of cancer cell survival relative to vehicle treated cells at the indicated concentrations, with values under 100 indicating anticancer cytotoxic activity at the drugs concentrations tested.
# THP-1 cells = assay: Example D: LPS-triggered THP-1 cell death assay, acute/5-hour and chronic/48-hour; format: cell-based, Human; details: 10 ng/ml LPS, 0.1 μM test compound, 48 hours
# Protocol: Compounds of the invention were tested at 0.1 μM versus AC in the LPS-triggered THP-1 cell death assay. Both acute/5-hour and chronic/48-hour phases of cell death were assessed. Compounds were screened in batches with DMSO as the negative control and AC as the high activity control.
# [2] = system: PC-3 prostate cancer cells; assay: Example T: sensitisation of PC-3 cells to doxorubicin, oxaliplatin, paclitaxel or vincristine, Wst1; format: cell-based, human; details: PC-3 cells, 72 hours; for viability at 2.5 µM / viability at 5 µM: Homo sapiens, Wst1, vehicle = 100, read-out: No Chemo: percent cell survival; for viability at 2.5 µM: compound 2.5 μM alone; for Doxorubicin 3.5 μM: percent cell survival / Oxaliplatin 100 μM: percent cell survival / Paclitaxel 50 μM: percent cell survival / Vincristine 100 nM: percent cell survival: chemotherapy agent alone normalized to 100%; for viability at 5 µM: compound 5 μM alone
# [3] = system: 4T1 murine breast cancer cells; assay: Example S: in vitro anticancer screen, 4T1 cells, Wst1; format: cell-based, mouse; details: Mus musculus, 4T1, 18 h, 18 hr, Wst1; for viability at 1 µM: read-out: 4T1 1 μM, percent of cancer cell survival relative to vehicle treated cells; for viability at 5 µM: read-out: 4T1 5 μM, percent of cancer cell survival relative to vehicle treated cells
# Protocol: Anticancer activity against 4T1 murine breast cancer cells cancer cells was assessed in vitro by seeding 1×10^4 cells/well in flat bottom culture plates, then treating with selected 1 μM or 5 μM concentrations of compounds for 18 hr after plating. Then 10 μL of Wst1 dye reagent, a tetrazolium dye indicator for […], was added/well and incubated approximately 2 hr before being assayed on the Biotek EL800 Universal microplate reader (450 nm, reference 630 nm).
# as §1
# [4] = compound 2.5 μM + doxorubicin 3.5 μM
# [5] = compound 2.5 μM + oxaliplatin 100 μM
# [6] = compound 2.5 μM + paclitaxel 50 μM
# [7] = compound 2.5 μM + vincristine 100 nM
# [8] = compound 5 μM + doxorubicin 3.5 μM
# [9] = compound 5 μM + oxaliplatin 100 μM
# [10] = compound 5 μM + paclitaxel 50 μM
# [11] = compound 5 μM + vincristine 100 nM
Structure (SMILES),viability at 2.5 µM [1],"Viable cell percent change, Chronic/48-hour, Mean (THP-1 cells)",viability at 2.5 µM [2],"Doxorubicin 3.5 μM: percent cell survival [2, 4]","Oxaliplatin 100 μM: percent cell survival [2, 5]","Paclitaxel 50 μM: percent cell survival [2, 6]","Vincristine 100 nM: percent cell survival [2, 7]",viability at 1 µM [3],viability at 5 µM [3],viability at 5 µM [1],viability at 5 µM [2],"Doxorubicin 3.5 μM: percent cell survival [2, 8]","Oxaliplatin 100 μM: percent cell survival [2, 9]","Paclitaxel 50 μM: percent cell survival [2, 10]","Vincristine 100 nM: percent cell survival [2, 11]"
"CCOCCCCCCCCn1cnc2cnc3ccccc3c21 [CD, 1-(8-Ethoxyoctyl)-1H-imidazo[4,5-c]quinoline]",16.6%,7.55%,16.6%,19.5%,20.1%,23.2%,17.1%,–,–,–,–,–,–,–,–
"COCCCCCCCCn1cnc2cnc3ccccc3c21 [CE, 1-(8-Methoxyoctyl)-1H-imidazo[4,5-c]quinoline]",16.2%,4.71%,16.2%,44.3%,18.8%,23.5%,15.6%,–,–,–,–,–,–,–,–
"COCCCCCNc1ccnc2ccccc12 [CM, N-(5-Methoxypentyl)quinolin-4-amine]",–,–,–,–,–,–,–,104%,221%,37.8%,37.8%,72.6%,78.1%,74.8%,81.3%
"CCOc1ccccc1OCCCNc1ccnc2ccccc12 [CS, N-[3-(2-Ethoxyphenoxy)propyl]quinolin-4-amine]",41.3%,66.27%,41.3%,79%,84.2%,69.7%,82.8%,–,–,–,–,–,–,–,–
"COc1ccccc1OCCCNc1ccnc2ccccc12 [CT, N-[3-(2-Methoxyphenoxy)propyl]quinolin-4-amine]",34.5%,34.36%,34.5%,63.2%,71.9%,46.3%,46.3%,–,–,–,–,–,–,–,–
"c1ccc(COc2ccccc2OCCCNc2ccnc3ccccc23)cc1 [CU, N-{3-[2-(Benyloxy)phenoxy]propyl}quinolin-4-amine]",37.6%,41.84%,37.6%,65%,74.9%,100.2%,56.7%,–,–,–,–,–,–,–,–
"CCCCCCOc1ccccc1C(=O)NCCNc1ccnc2ccccc12 [EB, 2-(Hexyloxy)-N-[2-(quinolin-4-ylamino)ethyl]benzamide]",94.4%,35.89%,94.4%,93.4%,98.8%,143.3%,98.2%,–,–,–,–,–,–,–,–
"CCCCCCOc1ccccc1C(=O)NCCCNc1ccnc2ccccc12 [EC, 2-(Hexyloxy)-N-[3-(quinolin-4-ylamino)propyl]benzamide]",94.6%,47.40%,94.6%,82.8%,100.4%,136.8%,91.6%,–,–,–,–,–,–,–,–
"CCCCCCOCCCCCCCCNc1cnc2ccccc2c1 [EL, N-[8-(Hexyloxy)octyl]quinolin-3-amine]",41.8%,–,41.8%,73.7%,99.4%,86.1%,70.8%,108%,39.4%,–,–,–,–,–,–
"CCOCc1nc2cnc3ccccc3c2n1CC(C)(C)O [FB, 1-[2-(Ethoxymethyl)-1H-imidazo[4,5-c]quinolin-1-yl]-2-methylpropan-2-ol]",97.7%,–,97.7%,89.1%,95.5%,93.2%,98.6%,92.7%,90%,–,–,–,–,–,–
"CCCCCCCCCCCCCCCc1nc2c(O)nc3ccccc3c2n1CC(C)C [FD, 1-Isobutyl-2-pentadecyl-1H-imidazo[4,5-c]quinolin-4-ol]",–,–,–,–,–,–,–,106%,112%,112%,112%,101%,85.3%,95.6%,98.7%
"CCCCCCCCCCCCCCCCn1cnc2cnc3ccccc3c21 [FE, 1-Hexadecyl-1H-imidazo[4,5-c]quinoline]",–,–,–,–,–,–,–,108%,31.7%,34.2%,34.2%,46.8%,67.6%,113.7%,37.3%
"CCCCCCCCCCCCCCCCn1cnc2c(N)nc3ccccc3c21 [FF, 1-Hexadecyl-1H-imidazo[4,5-c]quinolin-4-amine]",–,–,–,–,–,–,–,103%,102%,93%,93%,90.7%,95.2%,136.1%,110.1%
"CCCCCCCCCCCCOCCn1cnc2c(N(C)C)nc3ccccc3c21 [FH, 1-[2-(Dodecyloxy)ethyl]-N,N-dimethyl-1H-imidazo[4,5-c]quinolin-4-amine]",–,–,–,–,–,–,–,101%,102%,89%,89%,79.6%,82.3%,131.8%,114.9%
"CCCCCCOCCCCCCCCn1cnc(-c2ccccc2)c1 [FR, 1-[8-(Hexyloxy)octyl]-4-phenyl-1H-imidazole]",101%,15.96%,101%,93.2%,102.5%,102.5%,99.1%,–,–,–,–,–,–,–,–
"CCCCCCCCCCCCn1cnc2cnc3ccccc3c21 [FY, 1-Dodecyl-1H-imidazo[4,5-c]quinoline]",36%,–,36%,74.6%,91.5%,91%,80.1%,95.2%,26.8%,–,–,–,–,–,–
"CCCCCCCCCCOCCCn1cnc2cnc3ccccc3c21 [FZ, 1-[3-(Decyloxy)propyl]-1H-imidazo[4,5-c]quinoline]",–,–,–,–,–,–,–,91.4%,56.6%,32.7%,32.7%,39.6%,67.7%,114.8%,38.5%
"CCCCCCOc1cccc(OCCCn2cnc3cnc4ccccc4c32)c1 [GD, 1-{3-[3-(Hexyloxy)phenoxy]propyl}-1H-imidazo[4,5-c]quinoline]",24.3%,–,24.3%,39.5%,26.7%,27%,23.5%,–,–,–,–,–,–,–,–
